From ChEMBL document CHEMBL5154697, “Synthesis and anti-HIV activity of a new isoxazole containing disubstituted 1,2,4-oxadiazoles analogs” (Bioorg Med Chem, 2022)

Assays:
[1] = Cytotoxicity against human TZM-bl cells harboring beta-galactosidase/luciferase reporter gene assessed as cell viability at 100 nM measured after 48 hrs by MTT assay relative to control; assay type: toxicity, cell-based; details: read-out: Activity
[2] = tested on: Human immunodeficiency virus 1; test: Antiviral activity against HIV1 NL4.3 infected in human TZM-bl cells assessed as inhibition of viral infection at 100 nM measured after 48 hrs by steady-glo luciferase reporter gene assay relative to control; assay type: functional; details: Human immunodeficiency virus 1, NL4.3, TZM-bl
[3] = Cytotoxicity against human CEM-GFP cells assessed as cell viability at 100 nM measured after 48 hrs by MTT assay relative to control; assay type: toxicity, cell-based; details: read-out: Activity
[4] = tested on: Human immunodeficiency virus 1; test: Antiviral activity against HIV1 NL4.3 virus infected in human CEM-GFP cells assessed as reduction in p24 antigen level at 100 nM measured after 72 hrs by ELISA relative to control; assay type: functional; details: Human immunodeficiency virus 1, NL4.3, CEM-GFP
[5] = biological target: Human immunodeficiency virus type 1 protease (Human immunodeficiency virus 1) (UniProt Q72874); details: dose 500.0 nM
[6] = Cytotoxicity against human CEM-GFP cells assessed as reduction in cell viability measured after 48 hrs by MTT assay; assay type: toxicity, cell-based
[7] = Therapeutic index, ratio of CC50 for cytotoxicity against human CEM-GFP cells to IC50 for antiviral activity against HIV1 NL4.3 virus infected in human CEM-GFP cells assessed as reduction in p24 antigen level; assay type: toxicity, cell-based; details: read-out: TI
[8] = tested on: Human immunodeficiency virus 1; test: Antiviral activity against HIV1 NL4.3 virus infected in human CEM-GFP cells assessed as reduction in p24 antigen level measured after 72 hrs by ELISA; assay type: functional, organism-based; details: Human immunodeficiency virus 1, NL4.3, CEM-GFP
[9] = biological target: Human immunodeficiency virus type 1 integrase (Human immunodeficiency virus 1) (UniProt Q7ZJM1); test: Inhibition of full-length recombinant HIV1 integrase at 100 nM using target substrate DNA preincubated for 5 mins followed by substrate addition and measured after 30 mins by colorimetry relative to control; details: time 35.0 min
Chain of Human immunodeficiency virus type 1 integrase (Human immunodeficiency virus 1) (Q7ZJM1 as listed by the source): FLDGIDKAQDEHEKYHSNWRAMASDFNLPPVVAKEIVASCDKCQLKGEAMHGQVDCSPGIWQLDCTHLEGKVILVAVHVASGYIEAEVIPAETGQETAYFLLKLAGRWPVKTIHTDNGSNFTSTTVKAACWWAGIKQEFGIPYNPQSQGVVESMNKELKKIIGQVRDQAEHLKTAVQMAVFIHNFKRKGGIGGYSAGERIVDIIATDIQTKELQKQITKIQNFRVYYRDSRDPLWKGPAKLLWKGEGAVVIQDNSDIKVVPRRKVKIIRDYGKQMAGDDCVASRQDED

[10] = biological target: Human immunodeficiency virus type 1 protease (Human immunodeficiency virus 1) (UniProt Q72874); test: Inhibition of HIV-1 protease at 100 nM using fluorophore-labelled peptide substrate by fluorescence assay relative to control
[11] = biological target: Human immunodeficiency virus type 1 reverse transcriptase (Human immunodeficiency virus 1) (UniProt Q72547); test: Inhibition of HIV-1 reverse transcriptase RNA-dependent DNA polymerase activity assessed as reduction in biotin-dUTP incorporation at 100 nM using poly(A)/oligo (dT)15 as template/primer by ELISA relative to control

inhibition [5]	IC50 [8]	inhibition [9]	inhibition [10]	inhibition [11]	SMILES	viability at 48 h, 0.1 µM [1]	inhibition at 0.1 µM [2]	viability at 48 h, 0.1 µM [3]	inhibition at 0.1 µM [4]	CC50 at 48 h [6]	selectivity ratio [7]
					FC(F)(F)c1cccc(-c2nc(Cc3cc(-c4cccs4)no3)no2)c1	88.2%	27.5%	88.3%	17.5%		
87%					CC(C)(C)NC(=O)[C@@H]1CN(Cc2cccnc2)CCN1C[C@@H](O)C[C@@H](Cc1ccccc1)C(=O)N[C@H]1c2ccccc2C[C@H]1O						
					COc1ccc(-c2cc(Cc3noc(-c4cccc(C(F)(F)F)c4)n3)on2)cc1	83%	24.3%	96.6%	27%		
					Cc1ccc(-c2cc(Cc3noc(-c4cccc(C(F)(F)F)c4)n3)on2)cc1	82.1%	65.4%	86.7%	50%		
					CCNC(=O)c1noc(-c2cc(C(C)C)c(O)cc2O)c1-c1ccc(CN2CCOCC2)cc1 [LUMINESPIB]	92.7%	88.9%	94.1%	82.5%	31.1 µM	470
	0.0857 µM	9.58%	6.66%	5.44%	FC(F)(F)c1cccc(-c2nc(Cc3cc(-c4ccc(Cl)cc4)no3)no2)c1	84.4%	82%	85.1%	66.8%	13.3 µM	155
					FC(F)(F)c1cccc(-c2nc(Cc3cc(-c4ccccc4)no3)no2)c1	84.7%	47.4%	95.9%	39.1%		
